Literature values, collected in patent US12597519B2, “Methods for characterizing and treating a cancer type using cancer images” (TESARO, INC., priority 2019, dated 2026).

Experiments:
[1] = tested on: platinum-sensitive relapsed ovarian cancer
[2] = tested on: cancer cell lines silenced for BRCA-1 or BRCA-2, or carrying BRCA-1 or BRCA-2 mutations; settings: BRCA-defective cells

| Compound | overall survival benefit ([1]; interim analysis, intent to treat populations) | outcome in subset of patients who had BRCA mutations ([1]; planned analysis, BRCA mutation subset) | mechanism of antiproliferative activity [2] |
| --- | --- | --- | --- |
| O=C(c1cc(Cc2n[nH]c(=O)c3ccccc23)ccc1F)N1CCN(C(=O)C2CC2)CC1 [olaparib, 4-[(3-{[4-(cyclopropylcarbonyl)piperazin-1-yl]carbonyl}-4-fluorophenyl)methyl]phthalazin-1(2H)-one] | unlikely to translate into an overall survival benefit | clear advantage |  |
| Cc1ccc(S(=O)(=O)O)cc1.NC(=O)c1cccc2cn(-c3ccc([C@@H]4CCCNC4)cc3)nc12 [Niraparib, (3S)-3-[4-{7-(aminocarbonyl)-2H-indazol-2-yl}phenyl]piperidine] |  |  | cell cycle arrest in G2/M followed by apoptosis |
